Results from ChEMBL document CHEMBL4507287, “Data for DCP probe MRL-650” (2021).

Columns and labels:
[1] = molecular target: Serine/threonine-protein kinase 32C (Homo sapiens) (UniProt Q86UX6); conditions: Compound concentration 1000.0 nM
[2] = molecular target: 5-hydroxytryptamine receptor 1D (Homo sapiens) (UniProt P28221); conditions: Compound concentration 10.0 uM
[3] = molecular target: Serine/threonine-protein kinase tousled-like 1 (Homo sapiens) (UniProt Q9UKI8); conditions: Compound concentration 1000.0 nM
[4] = molecular target: Serine/threonine-protein kinase MRCK gamma (Homo sapiens) (UniProt Q6DT37); conditions: Compound concentration 1000.0 nM
[5] = molecular target: Serine/threonine-protein kinase B-raf (Homo sapiens) (UniProt P15056); conditions: Compound concentration 1000.0 nM
[6] = molecular target: Serine/threonine-protein kinase Nek9 (Homo sapiens) (UniProt Q8TD19); conditions: Compound concentration 1000.0 nM
[7] = tested on: Phosphatidylinositol 4,5-bisphosphate 3-kinase catalytic subunit alpha isoform (Homo sapiens), P42336 [H1047L]; conditions: Compound concentration 1000.0 nM
[8] = molecular target: Mitogen-activated protein kinase kinase kinase kinase 4 (Homo sapiens) (UniProt O95819); conditions: Compound concentration 1000.0 nM
[9] = molecular target: Dual serine/threonine and tyrosine protein kinase (Homo sapiens) (UniProt Q6XUX3); conditions: Compound concentration 1000.0 nM
[10] = molecular target: Tyrosine-protein kinase ITK/TSK (Homo sapiens) (UniProt Q08881); conditions: Compound concentration 1000.0 nM
[11] = molecular target: Proto-oncogene tyrosine-protein kinase ROS (Homo sapiens) (UniProt P08922); conditions: Compound concentration 1000.0 nM
[12] = molecular target: Tyrosine-protein kinase ABL2 (Homo sapiens) (UniProt P42684); conditions: Compound concentration 1000.0 nM
[13] = molecular target: MAP kinase-interacting serine/threonine-protein kinase 1 (Homo sapiens) (UniProt Q9BUB5); conditions: Compound concentration 1000.0 nM
[14] = molecular target: Serine/threonine-protein kinase Nek6 (Homo sapiens) (UniProt Q9HC98); conditions: Compound concentration 1000.0 nM
[15] = molecular target: Phosphatidylinositol 3-kinase catalytic subunit type 3 (Homo sapiens) (UniProt Q8NEB9); conditions: Compound concentration 1000.0 nM
[16] = molecular target: Ephrin type-B receptor 4 (Homo sapiens) (UniProt P54760); conditions: Compound concentration 1000.0 nM
[17] = molecular target: Cyclin-dependent kinase 4 (Homo sapiens) (UniProt P11802); conditions: Compound concentration 1000.0 nM
[18] = molecular target: Cyclin-dependent kinase-like 5 (Homo sapiens) (UniProt O76039); conditions: Compound concentration 1000.0 nM
[19] = molecular target: Serine/threonine-protein kinase Sgk1 (Homo sapiens) (UniProt O00141); conditions: Compound concentration 1000.0 nM
[20] = molecular target: Beta-2 adrenergic receptor (Homo sapiens) (UniProt P07550); conditions: Compound concentration 10.0 uM
[21] = molecular target: D(3) dopamine receptor (Homo sapiens) (UniProt P35462); conditions: Compound concentration 10.0 uM
[22] = molecular target: Serine/threonine-protein kinase SBK1 (Homo sapiens) (UniProt Q52WX2); conditions: Compound concentration 1000.0 nM
[23] = molecular target: Ephrin type-B receptor 3 (Homo sapiens) (UniProt P54753); conditions: Compound concentration 1000.0 nM
[24] = tested on: Phosphatidylinositol 4,5-bisphosphate 3-kinase catalytic subunit alpha isoform (Homo sapiens), P42336 [H1047Y]; conditions: Compound concentration 1000.0 nM
[25] = molecular target: Calcium/calmodulin-dependent protein kinase type II subunit alpha (Homo sapiens) (UniProt Q9UQM7); conditions: Compound concentration 1000.0 nM
[26] = molecular target: D(1B) dopamine receptor (Homo sapiens) (UniProt P21918); conditions: Compound concentration 10.0 uM
[27] = molecular target: Protein kinase C epsilon type (Homo sapiens) (UniProt Q02156); conditions: Compound concentration 1000.0 nM
[28] = molecular target: Serine/threonine-protein kinase pim-1 (Homo sapiens) (UniProt P11309); conditions: Compound concentration 1000.0 nM
[29] = molecular target: Serine/threonine-protein kinase Sgk3 (Homo sapiens) (UniProt Q96BR1); conditions: Compound concentration 1000.0 nM
[30] = molecular target: Macrophage-stimulating protein receptor (Homo sapiens) (UniProt Q04912); conditions: Compound concentration 1000.0 nM
[31] = molecular target: Serine/threonine-protein kinase Nek10 (Homo sapiens) (UniProt Q6ZWH5); conditions: Compound concentration 1000.0 nM
[32] = molecular target: 1-phosphatidylinositol 3-phosphate 5-kinase (Homo sapiens) (UniProt Q9Y2I7); conditions: Compound concentration 1000.0 nM
[33] = molecular target: Glycogen synthase kinase-3 beta (Homo sapiens) (UniProt P49841); conditions: Compound concentration 1000.0 nM
[34] = tested on: Phosphatidylinositol 4,5-bisphosphate 3-kinase catalytic subunit alpha isoform (Homo sapiens), P42336 [E545A]; conditions: Compound concentration 1000.0 nM
[35] = molecular target: Epidermal growth factor receptor (Homo sapiens) (UniProt P00533); conditions: Compound concentration 1000.0 nM
[36] = molecular target: Delta-type opioid receptor (Homo sapiens, UniProt P41143); conditions: Compound concentration 10.0 uM
[37] = molecular target: Muscarinic acetylcholine receptor M1 (Homo sapiens) (UniProt P11229); conditions: Compound concentration 10.0 uM
[38] = molecular target: Maternal embryonic leucine zipper kinase (Homo sapiens) (UniProt Q14680); conditions: Compound concentration 1000.0 nM
[39] = molecular target: Muscle, skeletal receptor tyrosine-protein kinase (Homo sapiens) (UniProt O15146); conditions: Compound concentration 1000.0 nM
[40] = molecular target: Mitogen-activated protein kinase kinase kinase 13 (Homo sapiens) (UniProt O43283); conditions: Compound concentration 1000.0 nM
[41] = molecular target: Serine/threonine-protein kinase 32A (Homo sapiens) (UniProt Q8WU08); conditions: Compound concentration 1000.0 nM
[42] = molecular target: Tyrosine-protein kinase receptor Tie-1 (Homo sapiens) (UniProt P35590); conditions: Compound concentration 1000.0 nM
[43] = molecular target: BMP-2-inducible protein kinase (Homo sapiens) (UniProt Q9NSY1); conditions: Compound concentration 1000.0 nM
[44] = molecular target: Histamine H3 receptor (Homo sapiens) (UniProt Q9Y5N1); conditions: Compound concentration 10.0 uM
[45] = molecular target: Protein kinase C iota type (Homo sapiens) (UniProt P41743); conditions: Compound concentration 1000.0 nM

Serine/threonine-protein kinase Sgk1 (Homo sapiens), sequence (O00141 whole entry): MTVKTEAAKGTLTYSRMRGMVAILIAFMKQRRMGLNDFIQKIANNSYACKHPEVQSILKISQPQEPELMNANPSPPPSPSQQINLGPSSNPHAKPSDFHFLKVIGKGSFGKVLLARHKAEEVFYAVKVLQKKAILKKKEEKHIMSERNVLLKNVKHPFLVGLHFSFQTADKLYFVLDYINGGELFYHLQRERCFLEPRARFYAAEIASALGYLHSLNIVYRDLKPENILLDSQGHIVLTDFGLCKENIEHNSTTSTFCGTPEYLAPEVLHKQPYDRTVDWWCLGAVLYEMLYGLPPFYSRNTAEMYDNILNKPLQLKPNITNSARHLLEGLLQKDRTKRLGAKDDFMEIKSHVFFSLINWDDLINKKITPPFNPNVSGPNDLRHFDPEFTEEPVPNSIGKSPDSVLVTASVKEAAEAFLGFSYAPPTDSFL
Phosphatidylinositol 4,5-bisphosphate 3-kinase catalytic subunit alpha isoform (Homo sapiens), P42336 [H1047Y], sequence (P42336 whole entry H1047Y, canonical isoform): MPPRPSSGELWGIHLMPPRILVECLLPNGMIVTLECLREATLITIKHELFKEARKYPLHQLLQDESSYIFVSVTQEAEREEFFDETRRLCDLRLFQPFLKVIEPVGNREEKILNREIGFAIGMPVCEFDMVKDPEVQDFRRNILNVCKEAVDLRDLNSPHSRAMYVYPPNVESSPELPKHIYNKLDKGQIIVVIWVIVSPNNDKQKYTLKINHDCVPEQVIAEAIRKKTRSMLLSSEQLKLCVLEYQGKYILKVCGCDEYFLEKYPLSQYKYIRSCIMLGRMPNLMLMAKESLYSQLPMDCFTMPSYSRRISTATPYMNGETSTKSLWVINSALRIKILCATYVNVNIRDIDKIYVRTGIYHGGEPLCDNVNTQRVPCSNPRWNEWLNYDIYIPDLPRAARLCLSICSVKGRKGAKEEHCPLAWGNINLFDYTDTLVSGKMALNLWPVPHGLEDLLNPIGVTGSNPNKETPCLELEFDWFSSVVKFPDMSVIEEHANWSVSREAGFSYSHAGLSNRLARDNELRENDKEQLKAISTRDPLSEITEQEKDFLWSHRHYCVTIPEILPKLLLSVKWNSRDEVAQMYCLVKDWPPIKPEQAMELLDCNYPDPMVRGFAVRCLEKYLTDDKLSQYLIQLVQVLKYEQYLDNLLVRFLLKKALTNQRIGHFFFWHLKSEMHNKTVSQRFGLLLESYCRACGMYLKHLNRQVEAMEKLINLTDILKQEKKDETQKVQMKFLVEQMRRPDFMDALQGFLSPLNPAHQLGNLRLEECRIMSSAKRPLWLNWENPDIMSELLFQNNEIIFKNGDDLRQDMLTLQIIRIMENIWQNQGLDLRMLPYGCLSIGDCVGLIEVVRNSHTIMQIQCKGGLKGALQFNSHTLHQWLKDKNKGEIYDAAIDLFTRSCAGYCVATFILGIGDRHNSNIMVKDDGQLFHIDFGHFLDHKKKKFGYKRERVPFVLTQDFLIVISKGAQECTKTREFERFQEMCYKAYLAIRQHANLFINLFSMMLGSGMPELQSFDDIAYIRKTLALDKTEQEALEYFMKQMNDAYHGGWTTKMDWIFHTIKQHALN
D(1B) dopamine receptor (Homo sapiens), sequence (P21918 whole entry): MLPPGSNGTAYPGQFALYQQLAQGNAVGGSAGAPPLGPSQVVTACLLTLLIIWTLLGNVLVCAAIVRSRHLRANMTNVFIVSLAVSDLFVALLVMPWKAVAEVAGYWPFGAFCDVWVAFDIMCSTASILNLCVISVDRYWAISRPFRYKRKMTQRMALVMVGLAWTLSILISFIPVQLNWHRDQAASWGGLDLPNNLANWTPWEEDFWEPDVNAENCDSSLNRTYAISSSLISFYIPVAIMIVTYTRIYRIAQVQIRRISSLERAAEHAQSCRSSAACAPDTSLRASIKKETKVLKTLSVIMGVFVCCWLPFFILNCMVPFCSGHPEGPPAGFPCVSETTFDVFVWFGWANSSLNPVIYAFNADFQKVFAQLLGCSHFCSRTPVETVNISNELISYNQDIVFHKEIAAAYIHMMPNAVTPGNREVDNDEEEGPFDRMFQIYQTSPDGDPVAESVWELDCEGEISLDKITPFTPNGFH
Histamine H3 receptor (Homo sapiens), sequence (Q9Y5N1 whole entry): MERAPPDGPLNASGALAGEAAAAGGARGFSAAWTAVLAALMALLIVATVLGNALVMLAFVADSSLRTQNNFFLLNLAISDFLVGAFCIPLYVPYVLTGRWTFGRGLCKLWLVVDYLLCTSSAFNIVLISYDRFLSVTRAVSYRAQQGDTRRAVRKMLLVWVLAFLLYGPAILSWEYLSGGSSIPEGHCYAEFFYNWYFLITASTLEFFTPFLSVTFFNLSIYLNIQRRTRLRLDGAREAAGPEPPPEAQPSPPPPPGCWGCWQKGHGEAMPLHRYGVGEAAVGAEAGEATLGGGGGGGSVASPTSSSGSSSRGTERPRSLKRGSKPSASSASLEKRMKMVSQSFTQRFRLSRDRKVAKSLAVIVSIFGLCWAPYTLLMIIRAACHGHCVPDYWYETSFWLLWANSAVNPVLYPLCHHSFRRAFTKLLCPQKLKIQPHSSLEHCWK
Serine/threonine-protein kinase tousled-like 1 (Homo sapiens), sequence (Q9UKI8 whole entry): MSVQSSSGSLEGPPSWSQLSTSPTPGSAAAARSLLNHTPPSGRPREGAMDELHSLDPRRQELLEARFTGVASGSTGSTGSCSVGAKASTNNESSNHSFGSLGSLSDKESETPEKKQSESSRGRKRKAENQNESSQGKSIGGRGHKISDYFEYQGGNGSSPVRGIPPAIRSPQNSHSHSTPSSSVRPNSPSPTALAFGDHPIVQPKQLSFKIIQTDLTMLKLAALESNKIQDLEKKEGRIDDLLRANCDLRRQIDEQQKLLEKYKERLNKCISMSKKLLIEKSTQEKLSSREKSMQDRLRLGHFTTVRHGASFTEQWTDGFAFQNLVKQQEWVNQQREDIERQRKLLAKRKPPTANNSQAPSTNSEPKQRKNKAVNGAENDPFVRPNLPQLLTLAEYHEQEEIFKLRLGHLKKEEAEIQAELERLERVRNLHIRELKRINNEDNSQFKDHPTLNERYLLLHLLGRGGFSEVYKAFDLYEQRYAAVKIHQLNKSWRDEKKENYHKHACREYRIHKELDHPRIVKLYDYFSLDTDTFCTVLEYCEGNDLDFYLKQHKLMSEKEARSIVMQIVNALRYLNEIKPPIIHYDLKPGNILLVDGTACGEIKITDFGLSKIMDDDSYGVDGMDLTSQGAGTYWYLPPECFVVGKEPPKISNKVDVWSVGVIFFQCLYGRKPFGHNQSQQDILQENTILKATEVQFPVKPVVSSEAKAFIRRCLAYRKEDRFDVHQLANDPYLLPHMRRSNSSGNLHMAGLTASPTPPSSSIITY
Serine/threonine-protein kinase Nek6 (Homo sapiens), sequence (Q9HC98 whole entry): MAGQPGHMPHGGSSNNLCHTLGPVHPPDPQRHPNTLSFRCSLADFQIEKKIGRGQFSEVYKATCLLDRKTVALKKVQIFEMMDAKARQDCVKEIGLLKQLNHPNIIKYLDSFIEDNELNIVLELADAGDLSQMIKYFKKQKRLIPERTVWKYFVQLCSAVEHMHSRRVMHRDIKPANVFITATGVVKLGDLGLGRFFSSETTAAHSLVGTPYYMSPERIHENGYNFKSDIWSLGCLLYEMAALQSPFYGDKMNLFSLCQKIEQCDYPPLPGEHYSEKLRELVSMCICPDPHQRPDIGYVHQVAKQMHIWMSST
MAP kinase-interacting serine/threonine-protein kinase 1 (Homo sapiens), sequence (Q9BUB5 whole entry, looked up): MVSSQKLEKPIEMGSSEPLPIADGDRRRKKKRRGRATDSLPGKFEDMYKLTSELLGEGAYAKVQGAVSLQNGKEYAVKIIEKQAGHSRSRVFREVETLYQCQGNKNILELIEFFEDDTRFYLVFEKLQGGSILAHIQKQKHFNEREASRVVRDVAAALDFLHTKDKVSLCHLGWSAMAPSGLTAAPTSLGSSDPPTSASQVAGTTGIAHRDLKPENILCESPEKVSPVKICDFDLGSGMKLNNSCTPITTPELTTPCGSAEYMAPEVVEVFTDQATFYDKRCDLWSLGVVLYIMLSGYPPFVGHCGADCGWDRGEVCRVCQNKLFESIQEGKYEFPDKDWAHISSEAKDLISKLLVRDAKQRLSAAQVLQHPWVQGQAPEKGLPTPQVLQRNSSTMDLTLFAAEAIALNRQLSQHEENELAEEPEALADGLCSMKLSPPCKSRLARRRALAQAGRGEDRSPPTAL
Glycogen synthase kinase-3 beta (Homo sapiens), sequence (P49841 whole entry, looked up, canonical isoform): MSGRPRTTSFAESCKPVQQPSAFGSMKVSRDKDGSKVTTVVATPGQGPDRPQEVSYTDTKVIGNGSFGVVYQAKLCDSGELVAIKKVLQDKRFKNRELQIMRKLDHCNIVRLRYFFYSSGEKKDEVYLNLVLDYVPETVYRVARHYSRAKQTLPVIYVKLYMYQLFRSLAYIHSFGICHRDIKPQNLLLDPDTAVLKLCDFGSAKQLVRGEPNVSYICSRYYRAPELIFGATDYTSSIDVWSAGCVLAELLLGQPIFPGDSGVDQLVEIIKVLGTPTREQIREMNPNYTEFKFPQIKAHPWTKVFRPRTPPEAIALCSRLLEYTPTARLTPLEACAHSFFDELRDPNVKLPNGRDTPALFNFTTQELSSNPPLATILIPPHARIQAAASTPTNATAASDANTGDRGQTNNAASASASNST
Cyclin-dependent kinase 4 (Homo sapiens), sequence (P11802 whole entry): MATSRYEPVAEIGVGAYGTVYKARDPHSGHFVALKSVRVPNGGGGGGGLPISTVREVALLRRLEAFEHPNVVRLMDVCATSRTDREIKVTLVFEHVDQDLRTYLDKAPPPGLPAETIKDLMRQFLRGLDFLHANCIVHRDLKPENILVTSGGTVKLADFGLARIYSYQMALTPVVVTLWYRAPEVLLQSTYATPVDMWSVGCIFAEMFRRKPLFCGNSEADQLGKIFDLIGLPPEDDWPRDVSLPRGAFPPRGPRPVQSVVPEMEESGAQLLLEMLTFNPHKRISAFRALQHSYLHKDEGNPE

With CC(=O)c1c(NS(C)(=O)=O)c2cc(-c3ccc(Cl)cc3)c(-c3ccc(Cl)cc3Cl)nc2n(C)c1=O [MRL-CB1-NC] as the molecule, how does the residual activity [1] read?
The residual activity was 100%.

What about the inhibition [2] of the same molecule?
The inhibition was 68.5%.

And the residual activity [3]?
Its residual activity is 95%.

What about the residual activity [4] of the same molecule?
The residual activity was 100%.

And the residual activity [5]?
Its residual activity is 90%.

What about the residual activity [6] of the same molecule?
Its residual activity is 100%.

What about the residual activity [7] of the same molecule?
Its residual activity is 96%.

And the residual activity [8]?
The residual activity was 100%.

What about the residual activity [9] of the same molecule?
The residual activity was 100%.

What about the residual activity [10] of the same molecule?
Its residual activity is 97%.

What about the residual activity [11] of the same molecule?
The residual activity was 100%.

And the residual activity [12]?
Its residual activity is 100%.

And the residual activity [13]?
The residual activity was 100%.

And the residual activity [14]?
Its residual activity is 100%.

What about the residual activity [15] of the same molecule?
The residual activity was 93%.

What about the residual activity [16] of the same molecule?
The residual activity was 92%.

And the residual activity [17]?
Its residual activity is 94%.

What about the residual activity [18] of the same molecule?
The residual activity was 94%.

What about the residual activity [19] of the same molecule?
The residual activity was 100%.

What about the inhibition [20] of the same molecule?
The inhibition was 5.51%.

And the inhibition [21]?
Its inhibition is 5.91%.

What about the residual activity [22] of the same molecule?
Its residual activity is 77%.

And the residual activity [23]?
The residual activity was 100%.

And the residual activity [24]?
The residual activity was 96%.

What about the residual activity [25] of the same molecule?
The residual activity was 100%.

And the inhibition [26]?
Its inhibition is 44.5%.

And the residual activity [27]?
Its residual activity is 96%.

What about the residual activity [28] of the same molecule?
The residual activity was 90%.

And the residual activity [29]?
The residual activity was 79%.

What about the residual activity [30] of the same molecule?
The residual activity was 88%.

And the residual activity [31]?
The residual activity was 99%.

And the residual activity [32]?
Its residual activity is 66%.

What about the residual activity [33] of the same molecule?
The residual activity was 97%.

And the residual activity [34]?
The residual activity was 100%.

What about the residual activity [35] of the same molecule?
Its residual activity is 100%.

What about the inhibition [36] of the same molecule?
Its inhibition is 73.6%.

And the inhibition [37]?
Its inhibition is 3.28%.

What about the residual activity [38] of the same molecule?
Its residual activity is 100%.

What about the residual activity [39] of the same molecule?
The residual activity was 99%.

And the residual activity [40]?
Its residual activity is 71%.

What about the residual activity [41] of the same molecule?
The residual activity was 87%.

And the residual activity [42]?
Its residual activity is 100%.

And the residual activity [43]?
The residual activity was 100%.

What about the inhibition [44] of the same molecule?
The inhibition was 0.553%.

And the residual activity [45]?
Its residual activity is 100%.

With CC(=O)Nc1c(C(C)=O)c(=O)n(C)c2nc(-c3ccc(Cl)cc3Cl)c(-c3ccc(Cl)cc3)cc12 [NAPHTHYRIDINONE] as the molecule, how does the residual activity [1] read?
The residual activity was 100%.

What about the inhibition [2] of the same molecule?
The inhibition was 32.9%.

And the residual activity [3]?
Its residual activity is 100%.

And the residual activity [4]?
Its residual activity is 100%.

And the residual activity [5]?
The residual activity was 100%.

And the residual activity [6]?
The residual activity was 100%.

And the residual activity [7]?
The residual activity was 95%.

What about the residual activity [8] of the same molecule?
The residual activity was 100%.

What about the residual activity [9] of the same molecule?
Its residual activity is 100%.

And the residual activity [10]?
The residual activity was 100%.

And the residual activity [11]?
The residual activity was 99%.

What about the residual activity [12] of the same molecule?
Its residual activity is 100%.

And the residual activity [13]?
Its residual activity is 100%.

And the residual activity [14]?
Its residual activity is 100%.

What about the residual activity [15] of the same molecule?
The residual activity was 100%.

And the residual activity [16]?
Its residual activity is 100%.

What about the residual activity [17] of the same molecule?
The residual activity was 100%.

What about the residual activity [18] of the same molecule?
The residual activity was 100%.

What about the residual activity [19] of the same molecule?
Its residual activity is 100%.

And the inhibition [20]?
The inhibition was 12.6%.

What about the inhibition [21] of the same molecule?
Its inhibition is 14.3%.

What about the residual activity [22] of the same molecule?
Its residual activity is 80%.

And the residual activity [23]?
Its residual activity is 100%.

What about the residual activity [24] of the same molecule?
Its residual activity is 100%.

What about the residual activity [25] of the same molecule?
Its residual activity is 100%.

What about the inhibition [26] of the same molecule?
Its inhibition is 5.24%.

And the residual activity [27]?
Its residual activity is 48%.

And the residual activity [28]?
Its residual activity is 100%.

What about the residual activity [29] of the same molecule?
The residual activity was 100%.

What about the residual activity [30] of the same molecule?
The residual activity was 100%.

What about the residual activity [31] of the same molecule?
Its residual activity is 100%.

And the residual activity [32]?
The residual activity was 100%.

What about the residual activity [33] of the same molecule?
The residual activity was 100%.

What about the residual activity [34] of the same molecule?
Its residual activity is 85%.

What about the residual activity [35] of the same molecule?
Its residual activity is 100%.

And the inhibition [36]?
The inhibition was -2.35%.

And the inhibition [37]?
The inhibition was -3.7%.

What about the residual activity [38] of the same molecule?
The residual activity was 100%.

And the residual activity [39]?
The residual activity was 100%.

What about the residual activity [40] of the same molecule?
The residual activity was 100%.

And the residual activity [41]?
Its residual activity is 82%.

And the residual activity [42]?
The residual activity was 100%.

What about the residual activity [43] of the same molecule?
The residual activity was 100%.

And the inhibition [44]?
The inhibition was -2.68%.

What about the residual activity [45] of the same molecule?
The residual activity was 100%.
